Measured values: patent US20250034139A1, “AMINE COMPOUNDS HAVING ANTI-INFLAMMATORY, ANTIFUNGAL, ANTIPARASITIC, AND ANTICANCER ACTIVITY” (PHARMA CINQ, LLC, priority 2013, published 2025)
In brackets after ≈: the same amount, converted by molar mass.

Experiments:
THP-1 cells = assay: Example D: LPS-triggered THP-1 cell death assay, acute/5-hour and chronic/48-hour; format: cell-based, Human; conditions: for Viable cell percent change, Chronic/48-hour, Mean: 10 ng/ml LPS, 0.1 μM test compound; for activity relative to AC in the LPS-triggered THP-1 cell death assay, in words: 0.1 μM, 5-hour and 48-hour time points
Method: Compounds of the invention were tested at 0.1 μM versus AC in the LPS-triggered THP-1 cell death assay. Both acute/5-hour and chronic/48-hour phases of cell death were assessed. Compounds were screened in batches with DMSO as the negative control and AC as the high activity control.

[1] = test system: Candida albicans strain 3153; assay: Example H: Candida albicans growth inhibition (OD 600 nm); format: cell-based; conditions: for MIC: Candida albicans, 3153, 24 hrs at 30° C., YPD, XLfit, read-out: MIC (uM) (99% of inhibition of fungal growth); for IC50: Candida albicans, 3153, read-out: IC50 (uM) (50% inhibition of fungal growth), 24 hrs at 30° C., YPD, XLfit
Method: A single colony of Candida Albicans was grown in 50 ml YPD broth overnight (19 hr). The cells were washed with PBS and 3.5×10^4 CFU/ml of C. Albicans (144 μl/well) in YPD medium were plated in 96 well plates. Test compounds were then added to each well with concentration ranged from 5 to 40 μM as final concentrations. The plates were incubated at 30° C. overnight (24 hrs) and OD at 600 nm was read at the end of incubation as an index of yeast cell density.
Part-I: Preparation of Candida albicans Cells • 1. One day prior to the inoculum preparation, pick a single colony of Candida albicans strain 3153 (lot #61794) from the Sabouraud Dextrose Agar plate using the inoculum loop and inoculate into a 250 mL flask containing 50 ml of YPD growth medium • 2. Incubate at 30° C. with shaking at 150 rpm for at least 18 hours with loosened lid to allow air in and facilitate growth. • 3. Examine an aliquot of the culture under a microscope for Candida cell morphology and lack of bacterial contamination; >95% of Candida cells should be blastoconidia. • 4. Transfer 25 ml the overnight culture into a 50-ml plastic disposable centrifuge tube, and centrifuge at 1000×g for 20 min. • 5. Discard the supernatant and wash the pellet with 4 ml of PBS at three times. Vortex and centrifuge, 1000×g for 10 min. • 6. After the third wash, dispense the pellet with 2 ml PBS and vortex. • 7. Make three 1:10 serial dilutions in sterile PBS (10^−1, 10^−2, 10^−3) from the 2 ml cell suspension using 15 ml culture tubes. The final volume in each tube is 5 ml. • 8. […] Make a 1:4 dilution in YPD medium from the 50-fold dilution of 10^−3 cell suspension for testing compounds. • The final C. albicans cell concentration for the test: 3.5×10^4 CFU/ml • 10. Plated 144 ul/well of the above dilution of cell on 96-well plates. Part-II: C. Albicans Growth Inhibition Testing with Compounds • 1. From 10 mM DMSO stock solutions, make serial dilutions of compounds to 0.13, 0.25, 0.40, 0.55, 0.75 and 1.0 mM solutions • 2. Add 6 ul each of diluted compound solutions per well in duplicates. The final concentrations were 0, 5, 10, 16, 22, 30 and 40 micromolar. • 3. Incubated all plates at 30 C for overnight (˜24 hours). • 4. Read absorbance at OD600 for each plate. • 5. Calculate the % inhibition of each compound against the DMSO treated cell.

S. cerevisiae = assay: Example I: Saccharomyces cerevisiae growth inhibition (OD 600 nm); format: cell-based; conditions: for IC50 / MIC: Saccharomyces cerevisiae, 18 hour incubation at 30° C., OD 600 nm, XLfit; for IC50: read-out: IC50, uM (50% inhibition of fungal growth); for MIC: read-out: MIC, uM (99% of inhibition of fungal growth)
Method: An overnight culture of S. cerevisiae was dilution in YPD broth to concentration of 40,000/ml and 150 μl/well was plated in 96 well plates. Compounds were then added to each well with concentration ranged from 4 to 50 μM as final concentration. The plates were inoculated at 30° C. overnight with shaking at 220 rpm and absorbance at 600 nm was read after 18 hour incubation.
• 1. One days prior to the inoculum preparation, pick a single colony of S. cerevisiae from the Sabouraud Dextrose Agar plate using the inoculum loop and inoculate into a 50 mL tube containing 10 ml of YPD growth medium • 2. Incubate at 30° C. with shaking at 220 rpm for 24 hours with loosen lid to allow air in and facilitates growth. • 3. Examine an aliquot of the culture under a microscope for yeast cell morphology and lack of bacterial contamination. • 4. Dilute the overnight culture with YPD medium at 1:30 dilution (70 ul to 2.1 ml) and count the number of cells as 4,230,000/ml. • 5. Mix 620 μl of 1:30 dilution and 64.4 ml YPD to make final concentration of 40,000/ml cells • 6. Plated 144 μl/well in four 96-well plates.
• 1. From 10 mM DMSO stock solutions, make serial dilutions of compounds to 0.1, 0.2, 0.3, 0.63 and 1.25 mM solutions • 2. Add 6 μl each of diluted compound solutions per well in duplicates. The final concentrations were 0, 4, 8, 12, 25 and 50 micromolar. • 3. Incubated all plates at 30 C for overnight (˜18 hours) with 220 rpm shaking. • 4. Read absorbance at OD600 for each plate on Spectra Max Plus plate reader. • 5. Calculate the % inhibition of each compound against the DMSO treated cell and plotted.

[2] = test system: 4T1 murine breast cancer cells; assay: Example S: in vitro anticancer screen, 4T1 cells, Wst1; format: cell-based, mouse; conditions: Mus musculus, 4T1, 18 h, 18 hr, Wst1; for viability at 1 µM: read-out: 4T1 1 μM, percent of cancer cell survival relative to vehicle treated cells; for viability at 5 µM: read-out: 4T1 5 μM, percent of cancer cell survival relative to vehicle treated cells
In short: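 4T1 cells seeded at 1×10^4/well were exposed to compound at 1 μM or 5 μM for 18 hr after plating. Wst1 tetrazolium dye was then added for about 2 hr and absorbance read at 450 nm (reference 630 nm). Values are percent survival relative to vehicle-treated cells.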

[3] = test system: PC3 human prostate cancer cells; assay: Example S: in vitro anticancer screen, PC-3 cells, Wst1; format: cell-based; conditions: Homo sapiens, PC-3, approximately 20 hours, Wst1, read-out: PC-3, percent of cancer cell survival relative to vehicle treated cells
In short: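 PC-3 cells, 2×10^4 cells/well, exposed ~20 h to vehicle or compound at 0.4, 0.5 or 2.5 μM as specified per compound. Wst1 dye added for 2 h; absorbance 450 nm (reference 630 nm), triplicates. Values are percent cell survival versus vehicle-treated cells.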

[4] = test system: PC-3 prostate cancer cells; assay: Example T: sensitisation of PC-3 cells to doxorubicin, oxaliplatin, paclitaxel or vincristine, Wst1; format: cell-based, human; conditions: PC-3 cells, 72 hours; for viability at 0.4 µM: compound 0.4 μM alone; for Doxorubicin 3.5 μM: percent cell survival / Oxaliplatin 100 μM: percent cell survival / Paclitaxel 50 μM: percent cell survival / Vincristine 100 nM: percent cell survival: chemotherapy agent alone normalized to 100%
[5] = test system: Cryptococcus neoformans (serotype D); assay: Example K: Cryptococcus neoformans (serotype D) growth inhibition; format: cell-based; conditions: Cryptococcus deneoformans, OD of 48 hour reading, 37° C., tested 4 to 60 μM, XLfit
Method: Cryptococcus neoformans (serotype D) were plated in 96 well plates with 144 μl/well of 8×10e5 CFU/ml in YM growth medium. Diluted compounds were then added to each well with concentration ranged from 4 to 60 μM as final concentration in duplicates. The plates were inoculated at 37° C. for total of 48 hours. Two readings of OD at 600 nm were measured after 30 and 48 hour treatments.
• 1. Pick a single colony of Cryptococcus from the YM agar plate using the inoculum loop and inoculate into a 125 ml flask containing 25 ml of YM growth medium. • 2. Incubate at 37° C. with shaking at 220 rpm for 24 hours with loosen lid to allow air in and facilitates growth. • 3. Examine an aliquot of the culture under a microscope for yeast cell morphology and lack of bacterial contamination. • 4. Dilute the overnight culture with YM medium at 1:100 dilution and count the number of cells as 1×10^6 cfu/ml. • 5. Make a final concentration of cells suspension at 8×10^5 cfu/ml in YM medium. • 6. Plate 144 μl/well of 8×10^5 cfu/ml cell suspension on 96-well plates. Part-II: Cryptococcus Growth Inhibition Testing with Compounds • 1. From 10 mM DMSO stock solutions, make serial dilutions of compounds to 0.1, 0.2, 0.3, 0.5, 1.0 and 1.5 mM solution. • 2. Add 6 ul each of diluted compound solutions per well in duplicates. The final concentrations were 0, 4, 8, 12, 20, 40 and 60 micromolar. • 3. Incubated all plates at 37° C. overnight (30 hours) with 150 rpm shaking. • 4. Read absorbance at OD600 for each plate. • 5. Leave plates in 37° C. incubator for another day and read absorbance at OD600 again at 48 hours to ensure the inhibitory effect of the compounds. • 6. Calculated the % inhibition and IC50 of each compound against untreated cells.

[6] = Homo sapiens, Wst1, vehicle = 100, read-out: No Chemo: percent cell survival
[7] = compound 0.4 μM + doxorubicin 3.5 μM
[8] = compound 0.4 μM + oxaliplatin 100 μM
[9] = compound 0.4 μM + paclitaxel 50 μM
[10] = compound 0.4 μM + vincristine 100 nM

Row | Structure (SMILES) | MIC [1] [µM] | IC50 [1] [µM] | IC50 (S. cerevisiae) [µM] | MIC (S. cerevisiae) [µM] | Viable cell percent change, Chronic/48-hour, Mean (THP-1 cells) [%] | viability at 1 µM [2] [%] | viability at 5 µM [2] [%] | viability at 0.4 µM [3] [%] | viability at 0.4 µM [4, 6] [%] | Doxorubicin 3.5 μM: percent cell survival [4, 7] [%] | Oxaliplatin 100 μM: percent cell survival [4, 8] [%] | Paclitaxel 50 μM: percent cell survival [4, 9] [%] | Vincristine 100 nM: percent cell survival [4, 10] [%] | activity relative to AC in the LPS-triggered THP-1 cell death assay, in words (THP-1 cells) | other results
1 | COc1ccc(OCCCCCCCCNc2ccnc3ccccc23)cc1 [AD, N-[8-(4-Methoxyphenoxy)octyl]quinolin-4-amine] |  |  |  |  | 26.01 | 21.6 | 51.1 | 54.7 | 54.7 | 23.9 | 23.1 | 46.1 | 46.7 | equivalent activity to AC at both the 5-hour and 48-hour time points | IC50 ([5]; read-out: IC50 (concentration for 50% of inhibition)): 3.98 µM; MIC ([5]; read-out: MIC (concentration for maximum-99% of inhibition)): 45.2 µM (≈ 17.1 µg/mL)
2 | CCCCCCOCCCCCCCCNc1ccnc2cc(C(F)(F)F)ccc12 [AY, N-[8-(Hexyloxy)octyl]-7-(trifluoromethyl)quinolin-4-amine] |  |  | 16.9 | 21.9 (≈ 9.29 µg/mL) | 7.71 | 131 | 34.5 |  |  |  |  |  |  |  | viability at 2.5 µM ([3]; 2.5 μM): 50.4%; viability at 2.5 µM ([4]; Homo sapiens, compound 2.5 μM alone, Wst1, vehicle = 100, read-out: No Chemo: percent cell survival): 50.4%; Doxorubicin 3.5 μM: percent cell survival ([4]; compound 2.5 μM + doxorubicin 3.5 μM): 78.9%; Oxaliplatin 100 μM: percent cell survival ([4]; compound 2.5 μM + oxaliplatin 100 μM): 92%; Paclitaxel 50 μM: percent cell survival ([4]; compound 2.5 μM + paclitaxel 50 μM): 90.1%; Vincristine 100 nM: percent cell survival ([4]; compound 2.5 μM + vincristine 100 nM): 78.7%
3 | c1ccc(OCCCCCCNc2ccnc3ccccc23)cc1 [AR, N-(6-Phenoxyhexyl)quinolin-4-amine] | 69.8 (≈ 22.4 µg/mL) | 46.1 |  |  | 28.75 | 25.4 | 47 | 57 | 57 | 22.4 | 24.1 | 54.1 | 24.2 | equivalent activity to AC at both the 5-hour and 48-hour time points | 

More lines, main results first:

Row | MIC [1] [µM] | IC50 [1] [µM] | IC50 (S. cerevisiae) [µM] | MIC (S. cerevisiae) [µM] | Structure (SMILES) | Viable cell percent change, Chronic/48-hour, Mean (THP-1 cells) [%] | viability at 1 µM [2] [%] | viability at 5 µM [2] [%] | viability at 0.4 µM [3] [%] | viability at 0.4 µM [4, 6] [%] | Doxorubicin 3.5 μM: percent cell survival [4, 7] [%] | Oxaliplatin 100 μM: percent cell survival [4, 8] [%] | Paclitaxel 50 μM: percent cell survival [4, 9] [%] | Vincristine 100 nM: percent cell survival [4, 10] [%] | activity relative to AC in the LPS-triggered THP-1 cell death assay, in words (THP-1 cells) | other results
4 | 56.4 (≈ 22.5 µg/mL) | 18.3 | 6.31 |  | c1ccc2c(NCCCCCCCCNc3ccnc4ccccc34)ccnc2c1 [Compound AI, N^1,N^8-Di(quinolin-4-yl)octane-1,8-diamine] | 28.60 | 16.2 | 17.9 | 36.4 | 36.4 | 80.8 | 89 | 96.1 | 64.9 |  | inactive compound (inhibition of yeast growth, in words) (S. cerevisiae; tested 4 to 50 μM): could not reach near 100% kill at high concentration
5 | 134 (≈ 48 µg/mL) | 37.5 |  |  | CCCOCCOCCCCCCCCNc1ccnc2ccccc12 [BD, N-[8-(2-Propoxyethoxy)octyl]quinolin-4-amine] |  | 25.5 | 27.7 | 29.3 | 29.3 | 66.1 | 61.3 | 28.4 | 33.3 | equivalent activity to AC at both the 5-hour and 48-hour time points | 
6 |  |  | 12.3 | 25 (≈ 8.69 µg/mL) | CCCCCCNC(=O)c1cccc(Nc2ccnc3ccccc23)c1 [BV, N-Hexyl-3-(quinolin-4-ylamino)benzamide] | 42.14 |  |  | 31.6 |  |  |  |  |  |  | 
